Measurements reported in PubChem BioAssay AID1918994 (Molecular Pharmacology Branch, DTP, NCI, 2023).

Test system: 292921-168-R-J2-PDC complex spheroid growth
Assay: Anticancer human tumor 292921-168-R-J2-PDC patient-derived pancreatic carcinoma cell line growth inhibition [AhR]
Settings: for IC50: curve of first compound; for viability, T/C: stronger effect = lower value
Procedure, shortened: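 Agents were dosed in half-log steps down from roughly clinical Cmax, or from 10 microM where Cmax was unknown, alone and with AhR antagonists. Read-out: percent test/control growth of tumor spheroids containing HUVEC and MSC stromal cells.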

[1] = second compound 0.1 µM, first compound 0.0316 µM
[2] = second compound 0.1 µM, first compound 0.1 µM
[3] = second compound 0.1 µM, first compound 0.316 µM
[4] = second compound 0.1 µM, first compound 1 µM
[5] = second compound 0.1 µM, first compound 3.16 µM
[6] = second compound 0.1 µM, first compound 10 µM
[7] = second compound 0.316 µM, first compound 0.0316 µM
[8] = second compound 0.316 µM, first compound 0.1 µM
[9] = second compound 0.316 µM, first compound 0.316 µM
[10] = second compound 0.316 µM, first compound 1 µM
[11] = second compound 0.316 µM, first compound 3.16 µM
[12] = second compound 0.316 µM, first compound 10 µM
[13] = second compound 1 µM, first compound 0.0316 µM
[14] = second compound 1 µM, first compound 0.1 µM
[15] = second compound 1 µM, first compound 0.316 µM
[16] = second compound 1 µM, first compound 1 µM
[17] = second compound 1 µM, first compound 3.16 µM
[18] = second compound 1 µM, first compound 10 µM
[19] = second compound 3.16 µM, first compound 0.0316 µM
[20] = second compound 3.16 µM, first compound 0.1 µM
[21] = second compound 3.16 µM, first compound 0.316 µM
[22] = second compound 3.16 µM, first compound 1 µM
[23] = second compound 3.16 µM, first compound 3.16 µM
[24] = second compound 3.16 µM, first compound 10 µM
[25] = second compound 10 µM, first compound 0.0316 µM
[26] = second compound 10 µM, first compound 0.1 µM
[27] = second compound 10 µM, first compound 0.316 µM
[28] = second compound 10 µM, first compound 1 µM
[29] = second compound 10 µM, first compound 3.16 µM
[30] = second compound 10 µM, first compound 10 µM
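Also: spheroids exposed to compounds for seven days after three days of growth.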

| Structure (SMILES) | IC50 (second compound 0.1 µM) [nM] | IC50 (second compound 0.316 µM) [nM] | IC50 (second compound 1 µM) [nM] | IC50 (second compound 3.16 µM) [nM] | IC50 (second compound 10 µM) [nM] | viability, T/C [1] [%] | viability, T/C [2] [%] | viability, T/C [3] [%] | viability, T/C [4] [%] | viability, T/C [5] [%] | viability, T/C [6] [%] | viability, T/C [7] [%] | viability, T/C [8] [%] | viability, T/C [9] [%] | viability, T/C [10] [%] | viability, T/C [11] [%] | viability, T/C [12] [%] | viability, T/C [13] [%] | viability, T/C [14] [%] | viability, T/C [15] [%] | also measured |
| --- | --- | --- | --- | --- | --- | --- | --- | --- | --- | --- | --- | --- | --- | --- | --- | --- | --- | --- | --- | --- | --- |
| Nc1ccccc1NC(=O)c1ccc(CNC(=O)OCc2cccnc2)cc1 + Cc1ccccc1N=Nc1ccc(NC(=O)c2ccnn2C)c(C)c1 | 539 | 612 | 277 | 229 | < 31.6 | 66.5 | 65.1 | 57 | 40.9 | 27.3 | 12 | 66.8 | 65.8 | 58.9 | 42.8 | 26.1 | 12.8 | 63.9 | 54.5 | 52.6 | viability, T/C [16]: 35.9%; viability, T/C [17]: 26.5%; viability, T/C [18]: 12.3%; viability, T/C [19]: 54%; viability, T/C [20]: 55%; viability, T/C [21]: 50.7%; viability, T/C [22]: 33.4%; viability, T/C [23]: 23.7%; viability, T/C [24]: 10.3%; viability, T/C [25]: 48.9%; viability, T/C [26]: 42.7%; viability, T/C [27]: 34.7%; viability, T/C [28]: 32.3%; viability, T/C [29]: 17.7%; viability, T/C [30]: 8.67% |
| O=C(C=Cc1cccc(S(=O)(=O)Nc2ccccc2)c1)NO + Cc1ccccc1N=Nc1ccc(NC(=O)c2ccnn2C)c(C)c1 | 579 | 697 | 520 | 285 | < 31.6 | 69 | 64 | 52 | 39.7 | 38.2 | 3.35 | 74.9 | 68.2 | 55.4 | 43.2 | 36.9 | 6.05 | 68.8 | 59.1 | 54.8 | viability, T/C [16]: 38.8%; viability, T/C [17]: 36.1%; viability, T/C [18]: 3.74%; viability, T/C [19]: 65.8%; viability, T/C [20]: 49%; viability, T/C [21]: 49.1%; viability, T/C [22]: 34.9%; viability, T/C [23]: 35.2%; viability, T/C [24]: 2.03%; viability, T/C [25]: 44.2%; viability, T/C [26]: 41.6%; viability, T/C [27]: 36.9%; viability, T/C [28]: 33.8%; viability, T/C [29]: 29.1%; viability, T/C [30]: 4.17% |
| O=C(c1cc(Cc2n[nH]c(=O)c3ccccc23)ccc1F)N1CCN(C(=O)C2CC2)CC1 + Cc1ccccc1N=Nc1ccc(NC(=O)c2ccnn2C)c(C)c1 | > 10000 | > 10000 | > 10000 | > 10000 | 4550 | 80 | 84.9 | 92.9 | 95.8 | 89.6 | 75.5 | 79.4 | 90 | 86.8 | 85.8 | 84.5 | 65.7 | 77.8 | 67.8 | 79.2 | viability, T/C [16]: 73.5%; viability, T/C [17]: 82.8%; viability, T/C [18]: 67.4%; viability, T/C [19]: 69.2%; viability, T/C [20]: 64.4%; viability, T/C [21]: 72.5%; viability, T/C [22]: 67.4%; viability, T/C [23]: 63.6%; viability, T/C [24]: 58.9%; viability, T/C [25]: 50.6%; viability, T/C [26]: 59.5%; viability, T/C [27]: 54.6%; viability, T/C [28]: 62.6%; viability, T/C [29]: 49.7%; viability, T/C [30]: 43.8% |
